Test results reported in patent publication US20260042764A1, “COMPOSITIONS AND METHODS FOR INHIBITION OF KRAS” (TheRas, Inc., priority 2022, published 2026).

How the values were obtained:
H358 cells (KRAS G12C) [1] = experiment: 3D Cell viability assay in H358 cells (Biological Example 6); format: cell-based; details: Homo sapiens, NCI-H358; H358 (KRAS G12C) spheroids, 72 hours
Procedure, shortened: (§1)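 Tumour spheroids, grown 48 h from 1000 seeded cells in ultra-low attachment wells, receive compound at nine three-fold-spaced concentrations (final DMSO 0.25%) for 72 h at 37 °C, 5% CO2. Viability is measured by luminescence after CTG 3D lysis.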

SW1900 cells (KRAS G12D) [2] = experiment: 3D Cell viability assay in SW1900 cells (Biological Example 6); format: cell-based; details: Homo sapiens; SW1990 (text: SW1900, KRAS G12D) spheroids, 72 hours
Procedure, shortened: as §1

SW1900 cells (KRAS G12D) [3] = experiment: Cell-based pERK HTRF assay in SW1900 cells (Biological Example 5); details: Homo sapiens, SW1990, SW1990 cells (text: SW1900, KRAS G12D)
Procedure, shortened: (§2)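 To gauge disruption of KRAS-driven signalling, pERK1/2 (Thr202/Tyr204) was quantified by time-resolved FRET in lysates of cells exposed 2 h at 37° C to a 9-point dose series. Signal ratio 665/620 nm was converted to % pERK for four-parameter EC50 fitting.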

HPAC cells (KRAS G12D) [4] = experiment: Cell-based pERK HTRF assay in HPAC cells (Biological Example 5); details: Homo sapiens, HPAC
Procedure, shortened: as §2

[5] = system: Capan-2 cells (KRAS G12V); experiment: 3D Cell viability assay in Capan-2 cells (Biological Example 6); format: cell-based; details: Homo sapiens; Capan-2 (KRAS G12V) spheroids, 72 hours
Procedure, shortened: as §1

RKN cells (KRAS G12V) [6] = experiment: 3D Cell viability assay in RKN cells (Biological Example 6); format: cell-based; details: RKN (KRAS G12V) spheroids, 72 hours
Procedure, shortened: as §1

AsPC-1 cells (KRAS G12D) [7] = experiment: Cell-based pERK HTRF assay in AsPC-1 cells (Biological Example 5); details: Homo sapiens, ASPC1, AsPC-1 (KRAS G12D) cells
Procedure, shortened: as §2

AsPC-1 cells (KRAS G12D) [8] = experiment: 3D Cell viability assay in AsPC-1 cells (Biological Example 6); format: cell-based; details: Homo sapiens, ASPC1; AsPC-1 (KRAS G12D) spheroids, 72 hours
Procedure, shortened: as §1

[9] = system: MKN1 cells (KRAS amplification); experiment: Cell-based pERK HTRF assay in MKN1 cells (Biological Example 5); details: Homo sapiens, MKN-1, MKN cells (MKN1, KRAS amplification)
Procedure, shortened: as §2

RKN cells (KRAS G12V) [10] = experiment: Cell-based pERK HTRF assay in RKN cells (Biological Example 5)
Description: Biological Example 5: Cell-based PERK HTRF assay in AsPC-1, SW1900, HPAC, Capan-2, RKN, H358, HCT116, KP-2, H1573, A549, MKN1, and HT1080 cells
The inhibition of ERK phosphorylation, as measured using the HTRF Advanced Phospho-ERK 1/2 (Thr202/Tyr204) Detection Assay kit (Perkin Elmer), was used to determine the effectiveness of test compounds in disrupting KRAS-driven protein/effector signaling in cells.
On day 1, cells were seeded into 96-well plates at 2.5×10^4 cells/well in 100 μL of complete growth media supplemented with 10% fetal bovine serum (FBS) and incubated at 37° C., in the presence of 5% CO2.
On day 2, cells were treated with compounds diluted in DMSO at 0.25% final DMSO concentration. Compounds were dosed in a 9-point concentration curve with three-fold dilution between concentrations. Cells were incubated in the presence of compound for two hours at 37° C. Following this treatment period, cells were harvested by aspirating the media, adding 40 μL of kit-supplied 1x lysis buffer per well, and shaking for 30 minutes at 250 rpm at room temperature.
Following cell lysis, samples were homogenized by pipetting up and down twenty times and 16 μL of cell lysate per well was transferred from the 96-well cell culture plate to two wells of a 384-well detection plate. A complete detection buffer was prepared by diluting D2 and Eu Cryptate antibodies 1:20 in kit-provided detection solution, 4 μL of complete detection buffer was then added to each well with lysate. Plates were incubated with gentle rocking for 24 hours at 4° C.
Following this incubation period, plates were centrifuged at 500×g for one minute and analyzed on a CLARIOstar plate reader. Data was imported into Microsoft Excel and the signal from the 665 nm channel was divided by the signal from the 620 nm channel. % pERK was calculated as: […]
Data was imported to the Prism software package (Graphpad) and EC50 values were calculated using the log (inhibitor) vs, response—variable slopc (Four parameters) model.

[11] = system: MKN1 cells (KRAS amplification); experiment: 3D Cell viability assay in MKN1 cells (Biological Example 6); format: cell-based; details: Homo sapiens, MKN-1; MKN (MKN1, KRAS amplification) spheroids, 72 hours
Procedure, shortened: as §1

HPAC cells (KRAS G12D) [12] = experiment: 3D Cell viability assay in HPAC cells (Biological Example 6); format: cell-based; details: Homo sapiens, HPAC, 72 h, HPAC (KRAS G12D) spheroids
Procedure, shortened: as §1

H358 cells (KRAS G12C) [13] = experiment: Cell-based pERK HTRF assay in H358 cells (Biological Example 5); details: Homo sapiens, NCI-H358, H358 (KRAS G12C) cells
Procedure, shortened: as §2

[14] = system: Capan-2 cells (KRAS G12V); experiment: Cell-based pERK HTRF assay in Capan-2 cells (Biological Example 5); details: Homo sapiens, Capan-2, Capan-2 (KRAS G12V) cells
Procedure, shortened: as §2

HCT116 cells (KRAS G13D) = experiment: Cell-based pERK HTRF assay in HCT116 cells (Biological Example 5); details: Homo sapiens, HCT-116
Procedure, shortened: as §2

H1573 cells (KRAS G12A) = experiment: Cell-based pERK HTRF assay in H1573 cells (Biological Example 5); details: Homo sapiens, NCI-H1573
Procedure, shortened: as §2

KP-2 cells (KRAS G12R) = experiment: Cell-based pERK HTRF assay in KP-2 cells (Biological Example 5); details: KP-2 (KRAS G12R) cells
Procedure, shortened: as §2

HT1080 cells (NRAS) = experiment: 3D Cell viability assay in HT1080 cells (Biological Example 6); format: cell-based; details: Homo sapiens, HT-1080; HT1080 (NRAS) spheroids, 72 hours
Procedure, shortened: as §1

Structure (SMILES) | IC50 (H358 cells (KRAS G12C) [1]) [nM] | IC50 (SW1900 cells (KRAS G12D) [2]) [nM] | IC50 (SW1900 cells (KRAS G12D) [3]) [nM] | IC50 (HPAC cells (KRAS G12D) [4]) [nM] | IC50 [5] [nM] | IC50 (RKN cells (KRAS G12V) [6]) [nM] | IC50 (AsPC-1 cells (KRAS G12D) [7]) [nM] | IC50 (AsPC-1 cells (KRAS G12D) [8]) [nM] | IC50 [9] [nM] | IC50 (RKN cells (KRAS G12V) [10]) [nM] | IC50 [11] [nM] | IC50 (HPAC cells (KRAS G12D) [12]) [nM] | IC50 (H358 cells (KRAS G12C) [13]) [nM] | IC50 [14] [nM] | IC50 (HCT116 cells (KRAS G13D)) [nM] | IC50 (H1573 cells (KRAS G12A)) [nM] | IC50 (KP-2 cells (KRAS G12R)) [nM] | IC50 (HT1080 cells (NRAS)) [nM]
CCN(c1nc(OC[C@@]23CCCN2C[C@H](F)C3)nc2c(F)c(-c3ccc(F)c4sc(N)c(C#N)c34)c(C(F)(F)F)cc12)[C@H]1C[C@H]2COC(=O)N2C1 (atropisomer, axis not shown; (aS)) [Compound 518, 2-amino-4-((S)-4-(ethyl((6S,7aS)-3-oxotetrahydro-1H,3H-pyrrolo[1,2-c]oxazol-6-yl)amino)-8-fluoro-2-(((2R,7aS)-2-fluorotetrahydro-1H-pyrrolizin-7a(5H)-yl)methoxy)-6-(trifluoromethyl)quinazolin-7-yl)-7-fluorobenzo[b]thiophene-3-carbonitrile] | ≤ 100 | ≤ 100 | ≤ 100 | 100 to 1000 | ≤ 100 | ≤ 100 | ≤ 100 | ≤ 100 | ≤ 100 | ≤ 100 | ≤ 100 | ≤ 100 | ≤ 100 | ≤ 100 |  |  |  | 
CCN(c1nc(OC[C@@]23CCCN2C[C@H](F)C3)nc2c(F)c(-c3ccc(F)c4sc(N)c(C#N)c34)c(C(F)(F)F)cc12)[C@H]1C[C@H]2CN(C)C(=O)N2C1 (atropisomer, axis not shown; (aS)) [Compound 543, 2-amino-4-((S)-4-(ethyl((6S,7aS)-2-methyl-3-oxohexahydro-1H-pyrrolo[1,2-c]imidazol-6-yl)amino)-8-fluoro-2-(((2R,7aS)-2-fluorotetrahydro-1H-pyrrolizin-7a(5H)-yl)methoxy)-6-(trifluoromethyl)quinazolin-7-yl)-7-fluorobenzo[b]thiophene-3-carbonitrile] | ≤ 100 | ≤ 100 | ≤ 100 | ≤ 100 | ≤ 100 | ≤ 100 | ≤ 100 | ≤ 100 | ≤ 100 | ≤ 100 | ≤ 100 | ≤ 100 | ≤ 100 | ≤ 100 |  |  |  | 
CCN(c1nc(OC[C@@]23CCCN2C[C@H](F)C3)nc2c(F)c(-c3ccc(F)c4sc(N)c(C#N)c34)c(C(F)(F)F)cc12)[C@@H]1CCN(C(=O)C2CC2)[C@@H]1C (atropisomer, axis not shown) [Compound 524] | ≤ 100 | ≤ 100 | ≤ 100 | ≤ 100 | ≤ 100 |  | 100 to 1000 | 100 to 1000 | ≤ 100 |  | ≤ 100 | > 1000 | ≤ 100 | ≤ 100 | ≤ 100 | ≤ 100 | ≤ 100 | > 1000
CCC(=O)N1CC[C@@H](N(CC)c2nc(OC[C@@]34CCCN3C[C@H](F)C4)nc3c(F)c(-c4ccc(F)c5sc(N)c(C#N)c45)c(C(F)(F)F)cc23)[C@H]1C (atropisomer, axis not shown) [Compound 523] | ≤ 100 | ≤ 100 | ≤ 100 | ≤ 100 | ≤ 100 |  | 100 to 1000 | 100 to 1000 | ≤ 100 |  | ≤ 100 | > 1000 | ≤ 100 | ≤ 100 | ≤ 100 | ≤ 100 | ≤ 100 | > 1000
CCN(c1nc(OC[C@@]23CCCN2C[C@H](F)C3)nc2c(F)c(-c3ccc(F)c4sc(N)c(C#N)c34)c(C(F)(F)F)cc12)[C@H]1C[C@@H]2COC(=O)N2C1 (atropisomer, axis not shown) [Compound 519] | ≤ 100 | ≤ 100 | ≤ 100 | 100 to 1000 | ≤ 100 | ≤ 100 | ≤ 100 | ≤ 100 | ≤ 100 | ≤ 100 | ≤ 100 | 100 to 1000 | ≤ 100 | ≤ 100 |  |  |  | 
CCN(c1nc(OC[C@@]23CCCN2C[C@H](F)C3)nc2c(F)c(-c3ccc(F)c4sc(N)c(C#N)c34)c(C(F)(F)F)cc12)[C@H]1CCN(C(=O)N(C)C)C1 (atropisomer, axis not shown) [Compound 540, (3S)-3-[[7-(2-amino-3-cyano-7-fluoro-benzothiophen-4-yl)-8-fluoro-2-[[(2R,8S)-2-fluoro-1,2,3,5,6,7-hexahydropyrrolizin-8-yl]methoxy]-6-(trifluoromethyl)quinazolin-4-yl]-ethyl-amino]-N,N-dimethyl-pyrrolidine-1-carboxamide] | ≤ 100 | ≤ 100 | ≤ 100 | ≤ 100 | ≤ 100 |  | 100 to 1000 | 100 to 1000 | ≤ 100 |  | ≤ 100 | 100 to 1000 | ≤ 100 | ≤ 100 | ≤ 100 | ≤ 100 | ≤ 100 | > 1000
